Measured values reported in publication PMC6104039 (Nature Communications, 2018).
Where “and” joins values, the source holds several entries; their conditions need not be identical. Identical values can stand only once.

Tested on: HEK293 cells
Assay: Endogenous ceramide, HexCer and SM levels in cells treated 24 h, targeted LC-MS/MS
Type: cell-based
Parameters: Cer 18:1/24:0 content in HEK293 cells / Cer 18:1/24:1 content in HEK293 cells / HexCer 18:1/16:0 content in HEK293 cells / HexCer 18:1/18:0 content in HEK293 cells / HexCer 18:1/20:0 content in HEK293 cells / HexCer 18:1/22:0 content in HEK293 cells / Cer 18:1/16:0 content in HEK293 cells / Cer 18:1/18:0 content in HEK293 cells / Cer 18:1/20:0 content in HEK293 cells / Cer 18:1/22:0 content in HEK293 cells: unit not given here
Method: Lipids were then extracted using MTBE/methanol/water as described above.
HEK293 cell culture experiment: Levels of each lipid in P053-treated HEK293 cells were normalised to the mean of the vehicle control group, and each concentration was compared to the control using ANOVA with Dunnett’s post-test. P values were adjusted for multiple comparisons in GraphPad PRISM.
Supplementary Figure 1. Ceramide, SM, and HexCer levels in HEK293 cells treated with
P053. Absolute lipid levels were determined by targeted LC-MS/MS, relative to external
standard curves. Results are mean ± SEM (n = 4) from one of two identical experiments.
Statistically significant results, based on two independent experiments, are as indicated in
Figure 2b-d. Raw data for these figures is provided in Supplementary Data File 1.

[1] = HEK293 cells, 24 h, P053 300 nM
[2] = P053 10 nM, replicates, raw data Suppl Fig 1

C[C@@](N)(CO)CCc1ccc(OCc2ccc(Cl)c(Cl)c2)cc1 [P053, (S)-2-amino-4-(4-(3,4-dichlorobenzyloxy)phenyl)-2-methylbutan-1-ol]
16:0 SM level [1]: 91.5762 percentage of the vehicle control group and 97.3304 percentage of the vehicle control group and 95.7086 percentage of the vehicle control group and 90.4865 percentage of the vehicle control group and 94.7045 percentage of the vehicle control group and 94.6107 percentage of the vehicle control group and 97.4329 percentage of the vehicle control group
16:1 SM level [1]: 95.4131 percentage of the vehicle control group and 93.1931 percentage of the vehicle control group and 97.1412 percentage of the vehicle control group and 89.2518 percentage of the vehicle control group and 106.305 percentage of the vehicle control group and 110.099 percentage of the vehicle control group and 114.576 percentage of the vehicle control group
18:0 Cer level [1]: 21.4642 percentage of the vehicle control group and 24.1123 percentage of the vehicle control group and 20.5881 percentage of the vehicle control group and 19.7155 percentage of the vehicle control group and 31.2852 percentage of the vehicle control group and 28.1026 percentage of the vehicle control group and 22.7669 percentage of the vehicle control group
18:0 HexCer level [1]: 20.413 percentage of the vehicle control group and 33.7976 percentage of the vehicle control group and 27.9895 percentage of the vehicle control group and 24.1749 percentage of the vehicle control group and 31.4424 percentage of the vehicle control group and 25.6474 percentage of the vehicle control group and 28.2273 percentage of the vehicle control group
18:0 SM level [1]: 51.9053 percentage of the vehicle control group and 55.6537 percentage of the vehicle control group and 52.9265 percentage of the vehicle control group and 58.2406 percentage of the vehicle control group and 58.0965 percentage of the vehicle control group and 68.5828 percentage of the vehicle control group
18:1 SM level [1]: 49.0849 percentage of the vehicle control group and 55.9252 percentage of the vehicle control group and 57.6407 percentage of the vehicle control group and 49.9379 percentage of the vehicle control group and 59.4579 percentage of the vehicle control group and 65.5511 percentage of the vehicle control group and 62.889 percentage of the vehicle control group
20:0 Cer level [1]: 93.6887 percentage of the vehicle control group and 101.721 percentage of the vehicle control group and 118.09 percentage of the vehicle control group and 85.7665 percentage of the vehicle control group and 100.615 percentage of the vehicle control group and 64.6288 percentage of the vehicle control group and 92.3762 percentage of the vehicle control group
20:0 SM level [1]: 118.407 percentage of the vehicle control group and 108.075 percentage of the vehicle control group and 104.904 percentage of the vehicle control group and 101.736 percentage of the vehicle control group and 91.4298 percentage of the vehicle control group and 108.941 percentage of the vehicle control group and 75.5566 percentage of the vehicle control group
22:0 Cer level [1]: 118.325 percentage of the vehicle control group and 95.8434 percentage of the vehicle control group and 96.1691 percentage of the vehicle control group and 93.2377 percentage of the vehicle control group and 117.011 percentage of the vehicle control group and 126.355 percentage of the vehicle control group and 127.853 percentage of the vehicle control group
22:0 HexCer level [1]: 109.712 percentage of the vehicle control group and 101.896 percentage of the vehicle control group and 93.6786 percentage of the vehicle control group and 100.98 percentage of the vehicle control group and 134.335 percentage of the vehicle control group and 123.952 percentage of the vehicle control group and 138.922 percentage of the vehicle control group
22:0 SM level [1]: 115.888 percentage of the vehicle control group and 97.5579 percentage of the vehicle control group and 89.8927 percentage of the vehicle control group and 119.666 percentage of the vehicle control group and 127.143 percentage of the vehicle control group and 125.883 percentage of the vehicle control group and 147.638 percentage of the vehicle control group
22:1 SM level [1]: 108.27 percentage of the vehicle control group and 122.085 percentage of the vehicle control group and 110.7 percentage of the vehicle control group and 101.001 percentage of the vehicle control group and 122.515 percentage of the vehicle control group and 112.931 percentage of the vehicle control group and 116.965 percentage of the vehicle control group
24:0 HexCer level [1]: 104.713 percentage of the vehicle control group and 95.2413 percentage of the vehicle control group and 95.3365 percentage of the vehicle control group and 92.7673 percentage of the vehicle control group and 114.448 percentage of the vehicle control group and 102.627 percentage of the vehicle control group and 132.114 percentage of the vehicle control group
24:0 SM level [1]: 113.274 percentage of the vehicle control group and 99.4416 percentage of the vehicle control group and 98.6316 percentage of the vehicle control group and 91.5407 percentage of the vehicle control group and 114.934 percentage of the vehicle control group and 115.44 percentage of the vehicle control group and 155.315 percentage of the vehicle control group
24:1 Cer level [1]: 111.319 percentage of the vehicle control group and 96.194 percentage of the vehicle control group and 99.387 percentage of the vehicle control group and 100.62 percentage of the vehicle control group and 125.506 percentage of the vehicle control group and 116.048 percentage of the vehicle control group and 122.55 percentage of the vehicle control group
24:1 HexCer level [1]: 99.7739 percentage of the vehicle control group and 98.9226 percentage of the vehicle control group and 100.626 percentage of the vehicle control group and 98.0727 percentage of the vehicle control group and 98.7766 percentage of the vehicle control group and 107.494 percentage of the vehicle control group and 117.137 percentage of the vehicle control group
24:1 SM level [1]: 105.1 percentage of the vehicle control group and 102.826 percentage of the vehicle control group and 108.435 percentage of the vehicle control group and 97.4023 percentage of the vehicle control group and 115.741 percentage of the vehicle control group and 108.576 percentage of the vehicle control group and 128.227 percentage of the vehicle control group
Cer 18:1/16:0 content in HEK293 cells [2]: 22.4895 and 20.1065 and 20.2227 and 20.5646
Cer 18:1/18:0 content in HEK293 cells [2]: 6.1592 and 6.073 and 6.699 and 5.451
Cer 18:1/20:0 content in HEK293 cells [2]: 0.6713 and 0.9209 and 0.7221 and 0.8599
Cer 18:1/22:0 content in HEK293 cells [2]: 56.12 and 63.3729 and 65.2079 and 63.3152
